Reference: patent US20240376094A2, “SELECTIVE BCL-XL PROTAC COMPOUNDS AND METHODS OF USE” (Les Laboratoires Servier, priority 2021, published 2024)

Columns and labels:
[1] = tested on: MOLT-4 cells; experiment: MOLT-4 cell viability, CTG assay; format: cell-based; details: Homo sapiens, MOLT-4, 48 h
Source text: The MTT colorimetric assay is based on the mitochondrial reduction of tetrazolium salt by living cells. The viable cell number is proportional to the production of formazan salts, which can be read spectrophotometrically at 540 nm. The CTG luminescent assay (CellTiter GLO, Promega) is based on a reagent which lyses cells and measures total adenosine triphosphate (ATP) content. The viable cell number is proportional to the production of ATP.
MOLT-4 cells were purchased from ATCC and cultivated in RPMI 1640 supplemented with 10% heat inactivated fetal bovine serum, penicillin (100 IU/mi), streptomycin (100 μg/ml) and L-glutamine (2 mM). Cells were cultured at 37° C. in a humidified atmosphere containing 5% […].
For CTG assay, cells were seeded in 384 microwell plates (40 μL per well) and exposed to the compounds for 48 h (11-point serial dilution with 5-fold factor, triplicates). At the end of incubation time, 40 μL of CTG solution were added per well. Wells were mixed thoroughly, and plates were incubated at room temperature for 10 minutes to stabilize luminescent signals prior to reading using a luminescence reader (PHERAStar FSX Reader, BMG Labtech).
IC50, were calculated using standard four-parametric curve fitting. IC50 is defined as the compound concentration at which the MTT or CTG signal is reduced to 50% of that measured for the control. Results shown in Table 14 represent the mean of at least 2 independent experiments.

[2] = target: T1, Bcl-xL (Homo sapiens, UniProt Q07817); experiment: HCT116 Bcl-xL degradation, capillary-based immunoassay (WES); format: cell-based; details: HCT116, 24 h, 9-point serial dilution
T1 construct: Measured levels of Bcl-xL protein of HCT116 cells treated with the tested compounds; host or cells: HCT116
T1 sequence (Q07817 whole entry): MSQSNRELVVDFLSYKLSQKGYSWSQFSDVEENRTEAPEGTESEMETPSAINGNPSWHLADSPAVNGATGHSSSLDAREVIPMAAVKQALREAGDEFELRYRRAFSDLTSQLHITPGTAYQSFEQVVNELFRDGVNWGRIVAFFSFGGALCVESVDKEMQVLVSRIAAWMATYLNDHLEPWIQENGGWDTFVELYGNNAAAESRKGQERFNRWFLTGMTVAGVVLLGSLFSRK
Procedure: HCT116 cells were purchased from ATCC and cultivated in RPMI 1640 supplemented with 10% heat inactivated fetal bovine serum, penicillin (100 IU/mi), streptomycin (100 μg/ml) and L-glutamine (2 mM). Cells were cultured at 37° C. in a humidified atmosphere containing 5% CO2. Cells were seeded in 96 microwell plates, 24 h later cells were treated with compounds (2-point 10/100 nM and/or 9-point serial dilution to determine DC50; quadruplicates) during 24 h and harvested in lysis buffer containing 10 mM Hepes (pH 7.5), 150 mM KCl, 5 mM MgCl2, 1 mM EDTA, 0.4% TritonX100, protease and phosphatase inhibitors cocktails (Calbiochem).
Protein concentration in the supernatants was determined using the Pierce BCA protein assay kit (Thermo Fisher Scientific). Lysates (1.5 μg/μL) were analyzed using an automated capillary electrophoresis WES system with 2-40 kDa Wes Separation Module (25 capillary cartridges, Proteinsimple), in accordance with the manufacturer's protocols. Antibodies against the following proteins were used: Bcl-xL (#2764, Cell Signaling Technology, 1:50) and cofilin (#5175, Cell Signaling Technology, 1:1000). Signals were detected with an HRP-conjugated secondary anti-rabbit antibody (#042-206, Proteinsimple) and were quantified using Compass software (version 4.0, Proteinsimple).
Bcl-xL level was calculated by normalizing Bcl-xL values to cofilin and expressed as a percentage of the normalized value of the untreated cells. DC50 were calculated using standard four-parametric curve fitting. DC50 is defined as the compound concentration at which Bcl-xL is reduced to 50% of that measured for the control. Measured levels of Bcl-xL protein of HCT116 cells treated with the tested compounds at 2-point 10 nM/100 nM and/or 9-point for DC50 determination are shown in Table 15.

SMILES	IC50 [1] [nM]	DC50 [2] [nM]
Cc1cc(N(CCCCN(C)C(=O)CCCCCCCCNc2cccc3c2C(=O)N(C2CCC(=O)NC2=O)C3=O)c2ccc(-c3cnn(CC45CC6(C)CC(C)(C4)CC(OCCN(C)C)(C6)C5)c3C)c(C(=O)O)n2)nnc1Nc1nc2ccccc2s1 (stereo not shown) [Example 91, 6-[[6-(1,3-benzothiazol-2-ylamino)-5-methyl-pyridazin-3-yl]-[4-[9-[[2-(2,6-dioxo-3-piperidyl)-1,3-dioxo-isoindolin-4-yl]amino]nonanoyl-methyl-amino]butyl]amino]-3-[1-[[3-[2-(dimethylamino)ethoxy]-5,7-dimethyl-1-adamantyl]methyl]-5-methyl-pyrazol-4-yl]pyridine-2-carboxylic acid]	12.7	0.407
Cc1c(Nc2nc3ccccc3s2)nnc2c1CCCN2c1ccc(-c2cnn(CC34CC5(C)CC(C)(C3)CC(OCCN(C)CCCCCCCCCCCCCOc3ccc6c(c3)C(=O)N(C3CCC(=O)NC3=O)C6=O)(C5)C4)c2C)c(C(=O)O)n1 (stereo not shown) [Example 115, 6-[3-(1,3-benzothiazol-2-ylamino)-4-methyl-6,7-dihydro-5H-pyrido[2,3-c]pyridazin-8-yl]-3-[1-[[3-[2-[13-[2-(2,6-dioxo-3-piperidyl)-1,3-dioxo-isoindolin-5-yl]oxytridecyl-methyl-amino]ethoxy]-5,7-dimethyl-1-adamantyl]methyl]-5-methyl-pyrazol-4-yl]pyridine-2-carboxylic acid]	3.93	0.266
CN[C@@H](C)C(=O)N[C@H](C(=O)N1CCC[C@H]1c1nc(C(=O)c2cccc(OCCCCCCCCN(C)CCOC34CC5(C)CC(C)(CC(Cn6ncc(-c7ccc(N8CCCc9c8nnc(Nc8nc%10ccccc%10s8)c9C)nc7C(=O)O)c6C)(C5)C3)C4)c2)cs1)C1CCCCC1 [Example 97, 6-[3-(1,3-benzothiazol-2-ylamino)-4-methyl-6,7-dihydro-5H-pyrido[2,3-c]pyridazin-8-yl]-3-[1-[[3-[2-[8-[3-[2-[(2S)-1-[(2S)-2-cyclohexyl-2-[[(2S)-2-(methylamino)propanoyl]amino]acetyl]pyrrolidin-2-yl]thiazole-4-carbonyl]phenoxy]octyl-methyl-amino]ethoxy]-5,7-dimethyl-1-adamantyl]methyl]-5-methyl-pyrazol-4-yl]pyridine-2-carboxylic acid]	3.76	0.356
Cc1c(Nc2nc3ccccc3s2)nnc2c1CCCN2c1ccc(-c2cnn(CC34CC5(C)CC(C)(C3)CC(OCCN(C)CCCCCCCCCCCCC(=O)N3CCC(c6ccc7c(c6)CN(C6CCC(=O)NC6=O)C7=O)CC3)(C5)C4)c2C)c(C(=O)O)n1 (stereo not shown) [Example 78, 6-[3-(1,3-benzothiazol-2-ylamino)-4-methyl-6,7-dihydro-5H-pyrido[2,3-c]pyridazin-8-yl]-3-[1-[[3-[2-[[13-[4-[2-(2,6-dioxo-3-piperidyl)-1-oxo-isoindolin-5-yl]-1-piperidyl]-13-oxo-tridecyl]-methyl-amino]ethoxy]-5,7-dimethyl-1-adamantyl]methyl]-5-methyl-pyrazol-4-yl]pyridine-2-carboxylic acid]	4.42	0.121
CN[C@@H](C)C(=O)N[C@H](C(=O)N1CCC[C@H]1c1nc(C(=O)c2cccc(OCCN(C)CCOC34CC5(C)CC(C)(CC(Cn6ncc(-c7ccc(N8CCCc9c8nnc(Nc8nc%10ccccc%10s8)c9C)nc7C(=O)O)c6C)(C5)C3)C4)c2)cs1)C1CCCCC1 [Example 101, 6-[3-(1,3-benzothiazol-2-ylamino)-4-methyl-6,7-dihydro-5H-pyrido[2,3-c]pyridazin-8-yl]-3-[1-[[3-[2-[2-[3-[2-[(2S)-1-[(2S)-2-cyclohexyl-2-[[(2S)-2-(methylamino)propanoyl]amino]acetyl]pyrrolidin-2-yl]thiazole-4-carbonyl]phenoxy]ethyl-methyl-amino]ethoxy]-5,7-dimethyl-1-adamantyl]methyl]-5-methyl-pyrazol-4-yl]pyridine-2-carboxylic acid]	7.68	0.612
